“And” between values parts separate entries of the source, which are not always exact repeats. Identical values can stand only once.

Common to all, as to assay type: cell-based, human
The subject of assay [1] is whole blood. Put plainly: Whole blood IFN-γ response to antigen with or without dextrose, 24-well plate, Quantiferon-TB ELISA (Example 2). A general note: In an ELISA, binding on a coated surface is turned into a signal by an enzyme label.
Assay [2] has as its system whole blood. To be noted: blood collection tube, dextrose added; one line per subject; * OD outside the range of the plate reader.
Assay [3] concerns whole blood. Put plainly: Whole blood IFN-γ response to HuPPD or Mitogen, 24-well plate versus blood collection tube, Quantiferon-TB ELISA (Example 4).
For assay [4], the system named is whole blood.

For phytohemagglutinin [Mitogen], the “Concentration of IFN-γ found for each plasma sample, +Dextrose” value in assay [1] (24-well plate, 20 hours 37° C., dextrose 2 mg/mL, one line per donor) was 122.76 IU/mL and 25.71 IU/mL. Besides, the “Concentration of IFN-γ found for each plasma sample, −Dextrose” value in assay [1] (24-well plate, 20 hours 37° C., without dextrose, one line per donor) is 108.72 IU/mL and 28.67 IU/mL. Further, in assay [1] (IFN-γ +Dextrose 2 mg/mL / −Dextrose, one line per donor), the “Fold increase with dextrose” value was 0.90 and 1.13. Besides, the “Change in IFN-γ detected with addition of dextrose (in words)” value in assay [1] (dextrose 2 mg/mL, 24-well plate) is “slight increase in IFN-γ detected for one of the donors and a slight decrease for the other”. Further, in assay [2], the “IFN-γ, In-Tube Method, Mitogen” value is 52.50 IU/mL and 4.15 IU/mL and 17.377* IU/mL and 5.57 IU/mL and 2.31 IU/mL and 11.77 IU/mL and 21.063* IU/mL and 4.02 IU/mL and 11.23 IU/mL and 17.05* IU/mL. In addition, the “Amount of IFN-γ detected, Mitogen 24-well” value in assay [3] (after subtraction of saline negative control, 24-well plate, one line per donor) is 83.34 IU/mL and 1.13 IU/mL and 10.04 IU/mL and 6.85 IU/mL and 12.32 IU/mL and 8.77 IU/mL and 76.98 IU/mL and 65.02 IU/mL and 8.14 IU/mL and −0.56 IU/mL and 21.79 IU/mL and 30.58 IU/mL and 28.26 IU/mL and 8.10 IU/mL and 2.75 IU/mL and 6.14 IU/mL and 14.05 IU/mL and 2.46 IU/mL and 11.80 IU/mL and 7.69 IU/mL. Further, the “Amount of IFN-γ detected, Mitogen Tube” value in assay [3] (after subtraction of saline negative control, blood collection tube, mean of duplicate tubes, one line per donor) was 61.94 IU/mL and 13.13 IU/mL and 7.95 IU/mL and 3.45 IU/mL and 13.32 IU/mL and 5.29 IU/mL and 68.58 IU/mL and 47.53 IU/mL and 5.80 IU/mL and −0.79 IU/mL and 16.34 IU/mL and 22.52 IU/mL and 19.16 IU/mL and 5.71 IU/mL and 1.88 IU/mL and 3.55 IU/mL and 9.07 IU/mL and 7.91 IU/mL and 8.73 IU/mL and 3.52 IU/mL. In addition, in assay [3] (mean over donors), the “Mean fold increase, Mitogen Tube/24-well” value was determined as 0.73. Also, in assay [3] (ratio of IFN-γ, one line per donor), the “Mitogen Tube/24-well” value was 0.74 (3×) and 0.79 and 0.05 and 1.08 and 0.60 and 0.89 and 0.73 and 0.71 (2×) and 0.75 and 0.68 and 0.58 and 0.65 and 3.22 and 0.46.

For the substance tetanus toxoid, the “Mean fold increase, TetTox Tube/24 well” value in assay [4] was 4.5 and 4.51.
